Where a name gives a salt, the structure may show the parent alone.
Assays:
[1] = Nanoassembly formation and size by Dynamic Light scattering (DLS); assay type: physicochemical; settings: for formation of nanoassemblies in aqueous solution: ethanol solution added dropwise to MiliQ water; for average diameter of particles (DLS): nanomicelles 1 mg/mL in water
Protocol: 1 mg of compound 4 or compound 6 was dissolved in ethanol (300 μL). This solution was slowly added dropwise using a microsyringe to MiliQ water (1.2 mL) under magnetic stirring (500 RPM). […] The organic solvent was evaporated under reduced pressure (100 mbar) at 40° C. yielding the final solution of nanomicelles of 1 mg/mL which were analysed by Dynamic Light scattering (DLS) using Zetasizer Nano ZS machine (Malvern) and stored at ambient temperature. Dynamic Light scattering (DLS) results are presented under FIG. 4 for compound 4 (A) and for compound 6 (B) and show a high homogeneity in size of the particule population with an average diameter of about 73 nm for compound 4 and 98.5 nm for compound 6.

A549 cell line = assay: Porphyrin accumulation (PpIX fluorescence) in A549 cells; assay type: cell-based, human; settings: tested 0.1 to 3.3 mM
Protocol: (§1) Human bladder carcinoma cell line T24 (ATTC® HTB-4™), human lung adenocarcinoma cell line A549 (ATTC® CCL-185™), human prostate cancer cell line PC-3 (ATTC® CRL-1435™), and human glioblastoma cell line U-87Mg (ATTC® HTB-14™) were grown as monolayers and maintained in DMEM^+GlutaMAX™-I medium, F12K nutrient mix, and MEM, respectively. Culture media were supplemented with 10% fetal calf serum (FCS) and […] streptomycin and 100 IU/ml penicillin. Cells were cultivated at 37° C. in humidified 95% air and 5% CO2 atmosphere and routinely maintained by serial passage in a new medium every 2-5 days, depending on the cell type.
(§2) Cell viability was measured using an MTT assay. T24 (5000 cells/well), PC3 (12000 cells/well), A549 (10000 cells/well) and U87Mg (10000 cells/well) were seeded in a 96-well plate and grown 12 to 18 hours. Then, the medium was replaced with medium containing increasing concentrations of different compounds of the invention (from 0.1 to 3.3 mM) and PPIX fluorescence was recorded with a plate reader (Safire, Tecan, Switzerland) at different time points (1, 2, 4, 6, 8 and 24 h). Excitation wavelength was set at 405 nm and emission wavelength at 630 nm. […] After background subtraction, porphyrin accumulation was calculated according to the fluorescence intensity at 635 nm.

[2] = Chemical stability in buffer at three pH values (UPLC); assay type: physicochemical; settings: 5 mM, 37° C., 20 mM buffers pH 4.00, 7.40, 8.90
Protocol: Chemical stability was investigated for compounds of the invention as compared to the known ester ALA-Hex as follows: Chemical stability was assayed at three different pH value by dissolving the compound of interest (or ALA-Hex control) in an appropriate buffer (pH=4.00 acetate buffer; pH=7.40 phosphate buffer; and pH 8.90 borate buffer). The buffer concentration was 20 mM. The solution was kept at 37° C. and assayed at different time points. Quantification of the starting material and degradation products was performed by UPLC using the Thermo Scientific Accela UPLC-MS system. The column used was Macherey-Nagel Nucleodur C18 Gravity 50/2 1.8 μm. 10 μL aliquots were injected and eluted using 10% acetonitrile and 90% ammonium formate buffer (10 mM) isocratic elution. The column was kept at 40° C. and the flow rate was 0.4 mL/min. The quantification was performed by integrating AUCs of the chromatograms of the peaks of interest at 220 nm.

PC3 cell line = assay: Porphyrin accumulation (PpIX fluorescence) in PC3 cells; assay type: cell-based, human; settings: for porphyrin synthesis capability (fluorescence kinetics) compared to ALA-hex: 1 mM; for concentration for optimal (highest) porphyrin formation: tested 0.1 to 3.3 mM
Protocol: as §1
Cell viability was measured using an MTT assay. T24 (5000 cells/well), PC3 (12000 cells/well), A549 (10000 cells/well) and U87Mg (10000 cells/well) were seeded in a 96-well plate and grown 12 to 18 hours. Then, the medium was replaced with medium containing increasing concentrations of different compounds of the invention (from 0.1 to 3.3 mM) and PPIX fluorescence was recorded with a plate reader (Safire, Tecan, Switzerland) at different time points (1, 2, 4, 6, 8 and 24 h). Excitation wavelength was set at 405 nm and emission wavelength at 630 nm. After 24 hours of incubation with different products, the cells were washed twice with DPBS and fresh medium was put into each well. They were then either irradiated with a light dose of 10 J/cm^2 or kept in the dark. After background subtraction, porphyrin accumulation was calculated according to the fluorescence intensity at 635 nm.

U87-MG cell line = assay: Porphyrin accumulation (PpIX fluorescence) in U87-MG cells; assay type: cell-based, human; settings: tested 0.1 to 3.3 mM
Protocol: as §1, §2

CAM U87Mg spheroid tumor = assay: In vivo CAM U87Mg spheroid tumor model, fluorescence imaging; parameters: species or system chick; settings: Compound 7 100 μmol/kg; for tumor fluorescence signal / contrast: intravenous, Compound 1 300 μmol/kg, PpIX 100 μmol/kg, imaging 0, 30, 60, 120 min
Protocol: Compounds of the invention were tested in vivo in using the chorioallantoic membrane (CAM) model U87-Mg tumor spheroids were obtained using a modified procedure (De Magalhaes et al., 2010, 20-26) using 2.5×10^4 cells/mL. Spheroids grew 4 days before inoculation into the CAM. On embryonic development day (EDD) 7, the hole in the eggshell was enlarged to allow access to the CAM vasculature, using a needle (25 Gauge) a hole was drilled in the CAM. A binocular lens Leica M80 (Wetzlar, Germany) was used to perform the inoculation. Once the hole was pierced in the CAM, the spheroid (approximately of 200 μm) was placed in the cavity beneath the hole. Cell medium (20 μL) was placed on the spheroid to allow the tumor to attach to the CAM membrane and develop. Then, the eggs were sealed with parafilm and returned to the incubator to let spheroids grow until EDD13. Compounds were injected intravenously into the CAM vasculature (10-40 μL), preferentially into a large blood vessels using a needle (gauge 33, 51 mm, tap N type) attached to a 100 μL syringe (Hamilton, Reno, Nev.). Fluorescence imaging of tumor nodules was done with 12-bit monochrome CDD camera (Retiga EX Q-Imaging Canada) connected to fluorescence Eclipse E600 FN microscope with a CFI achromat objective characterized by magnification 4×, numerical aperture of 0.10 and a working distance of 30 mm (Nikon, Tokyo, Japan). A conical holder was used to place the eggs during experimentation under the objective of fluorescence microscope. A mercury arc lamp HBO 103/W/2 (MS Scientific Berlin, Germany) was used to provide illumination. For the detection of PpIX a BV-2A cube (Nikon, Tokyo, Japan) with an excitation filter: 400-440 nm, a dichroic mirror (455 nm) and an emission filter (470 nm) was used. A hollow slider filter 650/50 nm was added. Band pass filter 560/40 was used to image the autofluorescence of tumors. All pictures were taken with a 90 ms exposure and gain set at 50. […] Data was analysed using multiple t-tests and statistical significance determined at each time point.

T24 cell line = assay: Porphyrin accumulation (PpIX fluorescence) in T24 cells; assay type: cell-based, human; settings: tested 0.1 to 3.3 mM
Protocol: as §1, §2

[3] = In vivo chicken acute toxicity (chick embryo, intravenous); settings: chicken (chick embryo), in vivo; chick embryos, intravenous injection, viability 24 h after injection
Protocol: (§3) 5-ALA-Hex is known for its pronounced acute toxicity after intravenous injection and the LD50 of the compounds of the invention was determined by escalating doses of compounds dissolved in milliQ™ water and pH adjusted to 7.4 administered to embryos via intravenous injection. The viability of chick embryos has been evaluated after 24 h after injection. […] This higher LD50 value is believed to be a consequence of the rapid conversion into 5-ALA-Hex. Therefore, the very high doses of Compound 1 that were tolerated by chick embryos (LD50 of 500 μmol/kg) are consistent since this compound is much more slowly converted into 5-ALA-Hex (and 5-ALA) in all tissues expressing alkaline phosphatase.

chick embryos = assay: as above
Protocol: as §3

[4] = test system: alkaline phosphatase from calf intestine; assay: In vitro enzymatic activation by alkaline phosphatase (UPLC); assay type: biochemical; settings: borate buffer pH 8.90, 0.5 mM magnesium chloride, 1 U to 100 U alkaline phosphatase, 37° C.
Protocol: The ability of compounds of the invention to release ALA in presence of a phosphatase was investigated as follows: In vitro activation of compounds of interest by alkaline phosphatase was assayed by dissolving the compound of the invention (or ALA-Hex control) in 20 mM borate buffer at pH 8.90 containing 0.5 mM magnesium chloride and 1 U to 100 U of alkaline phosphatase from calf intestine (Applichem). The solution was kept at 37° C. and assayed at different time points. Quantification of the starting material and degradation products was performed by UPLC using the Thermo Scientific Accela UPLC-MS system. The column used was Macherey-Nagel Nucleodur C18 Gravity 50/2 1.8 μm. […] aliquots were injected and eluted using appropriate acetonitrile and ammonium formate buffer (10 mM) ratio with isocratic elution according to the compound of invention. The quantification was performed by integrating AUCs of the chromatograms of the peaks of interest at 220 nm.

SMILES | formation of nanoassemblies in aqueous solution [1] | average diameter of particles (DLS) [1] | concentration for optimal (highest) porphyrin formation (A549 cell line) [mM] | chemical stability (% of compound remaining in solution versus time) as compared to ALA-Hex [2] | porphyrin synthesis capability (fluorescence kinetics) compared to ALA-hex (PC3 cell line) | concentration for optimal (highest) porphyrin formation (PC3 cell line) [mM] | concentration for optimal (highest) porphyrin formation (U87-MG cell line) [mM] | tumor fluorescence signal / contrast (CAM U87Mg spheroid tumor) | concentration for optimal (highest) porphyrin formation (T24 cell line) [mM] | LD50 at 24 h [3] [µmol/kg] | increase in LD50 compared to 5-ALA-Hex (chick embryos) | LD50 (chick embryos; intravenous injection, viability 24 h after injection) [µmol/kg] | release of ALA upon activation of a phosphatase [4] | time post injection at which fluorescence started to outline the tumors (CAM U87Mg spheroid tumor; intravenous into CAM vasculature) [min]
CCCCCCOC(=O)CCC(=O)CNP(=O)(NCC(=O)CCC(=O)OCCCCCC)OCCC/C(C)=C/CC/C(C)=C/CC/C=C(\C)CC/C=C(\C)CCC=C(C)C [Compound 6, Bis-hexyl 5-((hydroxy(((4E,8E,12E,16E)-4,8,13,17,21-pentamethyldocosa-4,8,12,16,20-pentaen-1-yl)oxy)phosphoryl)bis-amino)-4-oxopentanoate] | Nanoassemblies formed spontaneously | ~98.5 nm |  |  |  |  |  |  |  |  |  |  |  | 
CCCCCCOC(=O)CCC(=O)CNP(=O)(O)Oc1ccccc1 [Compound 1, Triethylammonium salt of hexyl 5-((hydroxy(phenoxy)phosphoryl)amino)-4-oxopentanoate] |  |  | 3.3 | increased chemical stability | comparable porphyrin synthesis capability | 3.3 | 1.0 | delayed onset of the fluorescence signal but a robust contrast | 3.3 | 500 | 7 fold |  |  | 
CCCCCCOC(=O)CCC(=O)CN [Compound 5-ALA-Hex, 5-ALA-hexyl ester, reference compound] |  |  |  |  |  |  |  |  |  |  |  | 75 |  | 
CCCCCCOC(=O)CCC(=O)CNP(=O)(O)OCCC/C(C)=C/CC/C(C)=C/CC/C=C(\C)CC/C=C(\C)CCC=C(C)C [Compound 4, Hexyl 5-((hydroxy(((4E,8E,12E,16E)-4,8,13,17,21-pentamethyldocosa-4,8,12,16,20-pentaen-1-yl)oxy)phosphoryl)amino)-4-oxopentanoate] | Nanoassemblies formed spontaneously | about 73 nm |  |  |  |  |  |  |  |  |  |  |  | 
CCCCCCOC(=O)CCC(=O)CNC(=O)OCOP(=O)(O)O [Compound 7, hexyl 4-oxo-5-((((phosphonooxy)methoxy)carbonyl)amino)pentanoate] |  |  | 0.33 | increased chemical stability | comparable porphyrin synthesis capability | 0.33 | 0.1 | excellent and statistically significant signal to background at 1 h and also at 2 h | 0.1 | 200 | several fold |  | slower than the one from compound 1 | 30

From patent US10874740B2, “5-ALA derivatives and use thereof” (UNIVERSITE DE GENEVE, priority 2015, dated 2020)
